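Protocol summary: plate cells (96-well), add compound at 5 concentrations, incubate 48 h, interpolate endpoints linearly. The concentration for 50% growth inhibition is given as GI50.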 Activity calls are given as the source filed them. Rule as the data show it: active = GI50 up to about 1.1 µM and inactive = higher.
Key:
Test in all cases: NCI tumour cell line growth inhibition, 48 h
UO-31 = tested on: UO-31
SR = tested on: SR
NCI-H226 = tested on: NCI-H226
KM12 = tested on: KM12
MOLT-4 = tested on: MOLT-4
NCI-H460 = tested on: NCI-H460
OVCAR-8 = tested on: OVCAR-8
HL-60 = tested on: HL-60
NCI/ADR-RES = tested on: NCI/ADR-RES
786-0 = tested on: 786-0
K562 = tested on: K562
OVCAR-3 = tested on: OVCAR-3
HOP-62 = tested on: HOP-62
MDA-MB-231 = tested on: MDA-MB-231
HCT-15 = tested on: HCT-15
SK-MEL-2 = tested on: SK-MEL-2
ACHN = tested on: ACHN
MDA-N = tested on: MDA-N
M19-MEL = tested on: M19-MEL
SNB-78 = tested on: SNB-78

Structure (SMILES)	GI50 (UO-31)	GI50 (SR)	GI50 (NCI-H226)	GI50 (KM12)	GI50 (MOLT-4)	GI50 (NCI-H460)	GI50 (OVCAR-8)	GI50 (HL-60)	GI50 (NCI/ADR-RES)	GI50 (786-0)	GI50 (K562)	GI50 (OVCAR-3)	GI50 (HOP-62)	GI50 (MDA-MB-231)	GI50 (HCT-15)	GI50 (SK-MEL-2)	GI50 (ACHN)	GI50 (MDA-N)	GI50 (M19-MEL)	GI50 (SNB-78)
CC12CC(=O)C3C(CCC4=CC(=O)CCC43C)C1CC=C2CC(=O)O (configuration not stated)	> 100 µM (inactive)	> 100 µM (inactive)	> 100 µM (inactive)	> 100 µM (inactive)	> 100 µM (inactive)	> 100 µM (inactive)	> 100 µM (inactive)	> 100 µM (inactive)	> 100 µM (inactive)	> 100 µM (inactive)	> 100 µM (inactive)	98.2 µM (inactive)	> 100 µM (inactive)	> 100 µM (inactive)	> 100 µM	> 100 µM (inactive)	> 100 µM (inactive)	> 100 µM (inactive)		
Cn1c(=O)c2c(nc(Nc3ccc(Cl)cc3)n3c(=O)n(-c4ccccc4)c(=O)n23)n(C)c1=O	> 100 µM (inactive)	> 100 µM (inactive)	> 100 µM (inactive)	> 100 µM (inactive)	> 100 µM (inactive)	> 100 µM (inactive)	> 100 µM (inactive)	> 100 µM (inactive)	> 100 µM (inactive)	> 100 µM (inactive)	> 100 µM (inactive)	> 100 µM (inactive)	> 100 µM (inactive)	> 100 µM (inactive)	> 100 µM	> 100 µM (inactive)	> 100 µM (inactive)	> 100 µM (inactive)		
C[C@]12CC[C@H](OC(=O)Nc3ccccc3)CC1=CC[C@@H]1C2CC[C@]2(C)/C(=N/OC(=O)Nc3ccccc3)CCC12 (some centres not stated)	1.92 µM (inactive)			8.15 µM (inactive)	5.05 µM (inactive)	25.6 µM (inactive)	22.3 µM (inactive)	5.82 µM (inactive)		> 100 µM (inactive)	2.21 µM (inactive)	> 100 µM (inactive)			1.77 µM	> 100 µM (inactive)	7.14 µM (inactive)		> 100 µM (inactive)	> 100 µM (inactive)
C=C=C(C(=O)OC)[S+]([O-])c1ccccc1[N+](=O)[O-] (configuration not stated)	> 100 µM (inactive)		> 100 µM (inactive)	> 100 µM (inactive)	> 100 µM (inactive)	> 100 µM (inactive)	> 100 µM (inactive)	75.2 µM (inactive)		> 100 µM (inactive)	59.2 µM (inactive)	> 100 µM (inactive)	> 100 µM (inactive)		59 µM	> 100 µM (inactive)	> 100 µM (inactive)		> 100 µM (inactive)	> 100 µM (inactive)
CCOC(=O)/C(=C\c1cccc(C)c1)C(C)=O	13.8 µM (inactive)	3.44 µM (inactive)	24.9 µM (inactive)	15.2 µM (inactive)	10.2 µM (inactive)	20.8 µM (inactive)	21.6 µM (inactive)	3.98 µM (inactive)	19.6 µM (inactive)	13.6 µM (inactive)	28.4 µM (inactive)	14.5 µM (inactive)	24.5 µM (inactive)	12.4 µM (inactive)	15.6 µM	10.1 µM (inactive)	22.4 µM (inactive)	12.7 µM (inactive)		
CC(=O)CCCCO	> 100 µM (inactive)			> 100 µM (inactive)	> 100 µM (inactive)	> 100 µM (inactive)	> 100 µM (inactive)	> 100 µM (inactive)		> 100 µM (inactive)	> 100 µM (inactive)	> 100 µM (inactive)	> 100 µM (inactive)		> 100 µM	> 100 µM (inactive)	> 100 µM (inactive)		> 100 µM (inactive)	> 100 µM (inactive)
CCCCC1c2c([nH]c3ccccc23)C2C(=O)N(c3ccc(OC)cc3)C(=O)C2C1CCC (configuration not stated)	4.45 µM (inactive)	4.75 µM (inactive)	5.02 µM (inactive)	2.1 µM (inactive)	2.74 µM (inactive)	4.19 µM (inactive)	2.65 µM (inactive)	2.96 µM (inactive)	2.96 µM (inactive)	4.39 µM (inactive)	3.29 µM (inactive)	3.36 µM (inactive)	3.69 µM (inactive)	2.58 µM (inactive)	3.6 µM	2.39 µM (inactive)	5.7 µM (inactive)	3.02 µM (inactive)		
CC(=O)NC(CCCCN(Cc1ccccc1)C(=O)N(C)N=O)C(=O)NCc1ccccc1 (configuration not stated)	47.3 µM (inactive)		36.5 µM (inactive)	> 100 µM (inactive)	39.6 µM (inactive)	88.7 µM (inactive)	> 100 µM (inactive)			> 100 µM (inactive)	61 µM (inactive)	> 100 µM (inactive)	> 100 µM (inactive)		> 100 µM	> 100 µM (inactive)	> 100 µM (inactive)		> 100 µM (inactive)	> 100 µM (inactive)
